US20260306633A1, “A COMBINATION THERAPY FOR CANCER TREATMENT” (Purdue Research Foundation, priority 2023, published 2026)
Where two headings read alike, the source gives them in different places.

Key:
TNBC BT-549 cells = test: Cell survival / cell inhibition (MTT cell cytotoxicity assay) after 24 h treatment with photosensitizer and/or chemotherapeutic agent, dark or light-irradiated; assay type: cell-based, human; conditions: for viability at 1 µM: high end of 100-1000 nM; for viability at 0.01 µM: low end of 10-100 nM (so in the source)
Description: Human mammary epithelial carcinoma cell lines purchased from the American Type Culture Collection BT-549 (ATCC HTB-122) were cultured according to ATCC protocol. BT-549 cells were grown in RPMI 1640 containing 0.023 IU/mL insulin and supplemented with 10% fetal bovine serum (FBS). Cells were grown to 80-90% confluence in 75-cm^2 culture flasks (Corning) for 4-5 days in a humidified incubator (Fisher Scientific Isotemp) with 5% CO2 at 37° C. During the incubation period, growth media was changed once with fresh pre-warmed media (pH 7.2). To harvest the cells, old growth media was aspirated out, and 3 mL 0.25% trypsin solution (Thermo Sci Hyclone) were added. The cells were incubated for 5 minutes, and the cell pellet after centrifugation was resuspended in 3 mL media, broken up gently, then 1 mL of suspended cells was transferred into a new T75 cell culture flask containing pre-warmed media (20 mL) for further culturing.
Cells were grown to confluence in a 96-well plate (9×10^3 cells/well) and co-treated for 24 hours with synthesized photosensitizers (PSs) and chemotherapeutic agents of varying concentrations ranging from 5 nM to 50 μM) in growth media from a stock solution of 10 mM in DMSO (dimethyl sulfoxide, Fisher). After 24-hour treatment, old growth media containing the PSs or compounds were aspirated out and replaced with fresh media. Plates were then positioned below a non-coherent LumaCare LC-122 650 nm light source for 1 minute at an energy fluence rate of 0.96 J/cm^2 and a power of 16 mW/cm^2 (measured using a Newport optical power meter Model 840). Unirradiated cells served as control samples. The following day, cells were washed with pre-warmed PBS, and 11MTT (3-[4,5-dimethyl-thiazol-2-yl]-2.5-diphenyltetrazolium bromide, Sigma, 0.3 mg/mL) in PBS was added to each well. Samples were allowed to incubate for additional 2 hours, after which dark blue crystals formed. DMSO was added to each well and plates were shaken at room temperature for 1 hour to dissolve the purplish-blue formazan crystals. Absorbance values at 570 nm were measured on a microplate reader (BioRad 550). Cell survival was calculated based on the absorbance of the untreated cells alone (as control) and were directly proportional to the number of viable cells in culture. Results were reported as the mean±SD of triplicate measurements.
The unmetallated PS and the indium complexes were used.
Light dose corresponds to an energy fluence rate of 0.96 J/cm^2 used.
Power of 16 mW/cm^2 used.
Cell inhibition in TNBC cells is based on the cell survival (MTT) assay of the binary therapy, blending the effect of PDT and chemotherapeutic agents. […] MePheo serves as a control compound. TNBC cells were then exposed to light after binary treatment for 24 hours.

human TNBC BT-549 cells = test: Fluorescence microscopy (Hoechst 33258) of cell morphology / cell death pathway; assay type: cell-based; conditions: fluorouracil 25 μM, dark (FIG. 18U)
Description: Grayscale images of cells stained with Hoechst 33258. Morphology of (A) untreated unirradiated cells, sham control; (B) illuminated cells; (C-E) cells treated with: PSs (InCLA, CBTN, and CPA) and paclitaxel in the dark; (F-H) PSs, followed by 1 minute light exposure; (I) paclitaxel unirradiated; (J-L) PSs and paclitaxel in the dark; (M-O) PSs co-treated with paclitaxel, then light-exposed; (P-Q) PSs co-treated with doxorubicin, then irradiated; (R) PSs and cisplatin, dark; (S-T) PSs and cisplatin, irradiated; (U) fluorouracil, dark; (V) InCLA with fluorouracil in the dark; (W) light-exposed and, (X-Y) PSs with methotrexate with light. Inserts indicate enlarged view. […] Light dose in 1 minute=0.96 J cm^−2; in 30 seconds=0.48 J cm^−2. Concentrations: PSs=50 nM; paclitaxel=50 nM; doxorubicin=500 nM; cisplatin=25 μM; fluororuracil=25 μM; and, methotrexate=500 nM.
Cells (1 mL aliquots) obtained from a diluted cell suspension were seeded into each well (1.7 cm^2, 8×10^3 cells/well) of a 4-well culture slide (BD Biosciences) and grown to confluence in 5% CO2 at 37° C. for 3-4 days for attachment to the substratum. After aspirating the old growth media, 1 mL of the photosensitizer and chemotherapeutic agents (with appropriate concentrations) in fresh pre-warmed media at 37° C. was added to each well. After compound treatment for 24 hours, cells were washed twice with 1 mL fresh growth media, and then irradiated with light using LumaCare LC-122 as described above. Cells were stained in the dark with Hoechst 33258 (Molecular Probes) in pre-warmed media for 10 minutes at 37° C., washed twice with filtered PBS, then fixed with filtered paraformaldehyde for 15 minutes in the incubator. After thorough liquid aspiration, the wells were removed and allowed to air dry in the dark for 1 hour. Slides were protected with coverslips, whose edges were sealed using clear fast-drying nail polish and allowed to dry at room temperature in the dark for 30 minutes. Images were recorded using fluorescence microscopy (DAPI for Hoechst 350-390 nm excitation and 460-490 nm emission filters) using an upright fluorescence microscope with Retiga imaging 2000R (Nikon Optiphot-2, 20× and 40×) and an image processing Nikon NIS-Elements V4.0 Qimaging software.
To determine the preferred cell death pathway for the binary chemophotodynamic therapy, tracking the hallmarks of apoptosis or necrosis was accomplished using a nuclear stain to monitor chromatin condensation and cellular contraction. TNBC cells are spindle-shaped and nearly round with intact cytoplasm, diffused chromatin, distinct cellular membrane, and large oval nuclei staining dark blue with the nuclear stain (FIG. 18A-B).

SMILES | viability at 0.5 µM (TNBC BT-549 cells; Homo sapiens, BT-549, 24 h, doxorubicin 500 nM, dark, read-out: cell survival, drug only) | viability at 1 µM (TNBC BT-549 cells; Homo sapiens, BT-549, 24 h, doxorubicin, dark, read-out: cell survival, drug only (end of decrease)) | viability at 0.1 µM (TNBC BT-549 cells; Homo sapiens, BT-549, 24 h, doxorubicin, dark, low end of 100-1000 nM, read-out: cell survival, drug only (start of decrease)) | viability at 1 µM (TNBC BT-549 cells; Homo sapiens, BT-549, 24 h, doxorubicin, light, read-out: cell survival, drug only (end of decrease)) | viability at 0.1 µM (TNBC BT-549 cells; Homo sapiens, BT-549, 24 h, doxorubicin, light, low end of 100-1000 nM, read-out: cell survival, drug only (start of decrease)) | average decrease in cell survival upon light irradiation compared to unirradiated cells, drug only (TNBC BT-549 cells; drug alone, light vs dark) | viability at 25 µM (TNBC BT-549 cells; Homo sapiens, BT-549, 24 h, fluorouracil 25 μM, dark, read-out: cell survival, drug only) | viability at 0.1 µM (TNBC BT-549 cells; Homo sapiens, BT-549, 24 h, fluorouracil, dark, high end of 10-100 nM (so in the source), read-out: cell survival, drug only (end of decrease)) | viability at 0.01 µM (TNBC BT-549 cells; Homo sapiens, BT-549, 24 h, fluorouracil, dark, read-out: cell survival, drug only (start of decrease)) | viability at 0.1 µM (TNBC BT-549 cells; Homo sapiens, BT-549, 24 h, fluorouracil, light, high end of 10-100 nM (so in the source), read-out: cell survival, drug only (end of decrease)) | viability at 0.01 µM (TNBC BT-549 cells; Homo sapiens, BT-549, 24 h, fluorouracil, light, read-out: cell survival, drug only (start of decrease)) | cell morphology, fluorouracil, dark (human TNBC BT-549 cells) | viability at 0.5 µM (TNBC BT-549 cells; Homo sapiens, BT-549, 24 h, methotrexate 500 nM, dark, read-out: cell survival, drug only) | viability at 1 µM (TNBC BT-549 cells; Homo sapiens, BT-549, 24 h, methotrexate, dark, read-out: cell survival, drug only (end of decrease)) | viability at 0.1 µM (TNBC BT-549 cells; Homo sapiens, BT-549, 24 h, methotrexate, dark, low end of 100-1000 nM, read-out: cell survival, drug only (start of decrease)) | viability at 1 µM (TNBC BT-549 cells; Homo sapiens, BT-549, 24 h, methotrexate, light, read-out: cell survival, drug only (end of decrease)) | viability at 0.1 µM (TNBC BT-549 cells; Homo sapiens, BT-549, 24 h, methotrexate, light, low end of 100-1000 nM, read-out: cell survival, drug only (start of decrease)) | average increase in cell survival upon light irradiation compared to unirradiated cells, drug only (TNBC BT-549 cells; drug alone, light vs dark)
COc1cccc2c1C(=O)c1c(O)c3c(c(O)c1C2=O)C[C@@](O)(C(=O)CO)C[C@@H]3O[C@H]1C[C@H](N)[C@H](O)[C@H](C)O1 [doxorubicin, reference compound] | 81% | 70% | 100% | 72% | 95% | 2-5% | – | – | – | – | – | – | – | – | – | – | – | –
O=c1[nH]cc(F)c(=O)[nH]1 [fluorouracil, 5-Fluorouracil, reference compound] | – | – | – | – | – | 9% | 64% | 65% | 87% | 68% | 85% | did not affect the cellular morphology | – | – | – | – | – | –
CN(Cc1cnc2nc(N)nc(N)c2n1)c1ccc(C(=O)N[C@@H](CCC(=O)O)C(=O)O)cc1 [methotrexate, reference compound] | – | – | – | – | – | – | – | – | – | – | – | – | 78% | 66% | 87% | 66% | 93% | 6%
